From patent US11046658B2, “Aminopyrazine derivatives as PI3K-γ inhibitors” (Incyte Corporation, priority 2018, dated 2021)
pIC50: −log10 of the molar value. Where a name gives a salt, the structure may show the parent alone. Read-outs that look alike come from different tables or passages of the source.

Tests used:
[1] = system: Phosphorylated Ribosomal Protein S6 (RPS6) in THP-1 cells; experiment: THP-1 RPS6 ELISA Assay; assay type: cell-based, Human; conditions: THP-1 cells, 10 nM MCP-1, read-out: PI3Kγ_THP1_RPS6_ELISA IC50
Outline: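 Cells serum-starved overnight, pre-incubated with compounds 2 h at 37° C, then stimulated with 10 nM MCP-1 for 15 min. Lysates assayed for phospho-RPS6 by ELISA read at 450 nm. IC50 from percent inhibition vs log concentration curve fit.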

[2] = target: PI3Kγ (p110γ) Recombinant Human Protein (Homo sapiens (Human), UniProt P48736); experiment: PI3K-γ Scintillation Proximity Assay; assay type: biochemical; conditions: 2 μM ATP, 20 μM PIP2
Chain of PI3Kγ (p110γ) Recombinant Human Protein (P48736 whole entry): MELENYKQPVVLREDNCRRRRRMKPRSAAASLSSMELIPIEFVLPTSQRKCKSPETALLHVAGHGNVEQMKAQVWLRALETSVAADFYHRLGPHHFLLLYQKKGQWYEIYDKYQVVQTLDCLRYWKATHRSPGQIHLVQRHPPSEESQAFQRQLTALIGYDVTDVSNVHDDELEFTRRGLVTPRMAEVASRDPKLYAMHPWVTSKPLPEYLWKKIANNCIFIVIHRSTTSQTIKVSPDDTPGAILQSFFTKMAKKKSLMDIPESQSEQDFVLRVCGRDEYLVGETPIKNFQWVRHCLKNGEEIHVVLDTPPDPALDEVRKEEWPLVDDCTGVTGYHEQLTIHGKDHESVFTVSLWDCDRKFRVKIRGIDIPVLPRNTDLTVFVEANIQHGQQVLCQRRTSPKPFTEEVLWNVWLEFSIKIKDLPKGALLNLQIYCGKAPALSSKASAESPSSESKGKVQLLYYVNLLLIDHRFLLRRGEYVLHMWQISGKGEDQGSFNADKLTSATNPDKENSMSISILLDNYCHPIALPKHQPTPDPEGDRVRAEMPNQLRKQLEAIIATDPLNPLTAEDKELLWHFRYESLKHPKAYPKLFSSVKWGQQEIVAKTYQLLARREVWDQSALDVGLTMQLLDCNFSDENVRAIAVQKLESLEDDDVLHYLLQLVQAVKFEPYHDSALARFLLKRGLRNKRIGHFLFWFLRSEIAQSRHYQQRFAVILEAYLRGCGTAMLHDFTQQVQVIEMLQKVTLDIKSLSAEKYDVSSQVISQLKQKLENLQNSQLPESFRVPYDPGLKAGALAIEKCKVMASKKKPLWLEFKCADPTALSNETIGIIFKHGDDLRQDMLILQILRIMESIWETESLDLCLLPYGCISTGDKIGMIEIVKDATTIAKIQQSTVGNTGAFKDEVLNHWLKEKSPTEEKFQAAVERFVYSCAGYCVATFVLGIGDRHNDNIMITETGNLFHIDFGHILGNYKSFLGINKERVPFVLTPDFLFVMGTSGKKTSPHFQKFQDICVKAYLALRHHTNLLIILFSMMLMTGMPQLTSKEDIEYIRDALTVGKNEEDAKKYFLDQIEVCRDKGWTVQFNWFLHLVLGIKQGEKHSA
Description: (§1) Materials: [γ-^33P]ATP (10 mCi/mL) and Wheat Germ Agglutinin (WGA) YSi SPA Scintillation Beads was purchased from Perkin Elmer (Waltham, Mass.). Lipid kinase substrate, D-myo-Phosphatidylinositol 4,5-bisphosphate (PtdIns(4,5)P2)D (+)-sn-1,2-di-O-octanoylglyceryl, 3-O-phospho linked (PIP2), CAS 204858-53-7, was purchased from Echelon Biosciences (Salt Lake City, Utah). PI3Kγ (p110γ) Recombinant Human Protein was purchased from Life technology (Grand Island, N.Y.). ATP, MgCl2, DTT, EDTA, MOPS and CHAPS were purchased from Sigma Aldrich (St. Louis, Mo.).
(§2) The kinase reaction was conducted in polystyrene 384-well Greiner Bio-one white plate from Thermo Fisher Scientific in a final volume of 25 μL. Inhibitors were first diluted serially in DMSO and added to the plate wells before the addition of other reaction components. The final concentration of DMSO in the assay was 2%. The PI3Kγ assay was carried out at room temperature in 20 mM MOPS, pH 6.7, 10 mM MgCl2, 5 mM DTT and CHAPS 0.03%. Reactions were initiated by the addition of ATP, the final reaction mixture consisted of 20 μM PIP2, 2 μM ATP, 0.5 μCi [γ-^33P] ATP, 13 nM PI3Kγ. Reactions were incubated for 120 min and terminated by the addition of 40 μL SPA beads suspended in quench buffer: 163 mM potassium phosphate pH 7.8, 20% glycerol, 25 mM EDTA. The final concentration of SPA beads is 1.0 mg/mL. After the plate sealing, plates were shaken overnight at room temperature and centrifuged at 1500 rpm for 10 min, the radioactivity of the product was determined by scintillation counting on Topcount (Perkin-Elmer). IC50 determination was performed by fitting the curve of percent of the solvent control activity versus the log of the inhibitor concentration using the GraphPad Prism 6.0 software.

[3] = target: PI3Kδ (p110δ/p85α) Recombinant Human Protein (Homo sapiens (Human), UniProt O00329); experiment: PI3Kδ Scintillation Proximity Assay; assay type: biochemical; conditions: 2 μM ATP, 20 μM PIP2
Chain of PI3Kδ (p110δ/p85α) Recombinant Human Protein (O00329 whole entry): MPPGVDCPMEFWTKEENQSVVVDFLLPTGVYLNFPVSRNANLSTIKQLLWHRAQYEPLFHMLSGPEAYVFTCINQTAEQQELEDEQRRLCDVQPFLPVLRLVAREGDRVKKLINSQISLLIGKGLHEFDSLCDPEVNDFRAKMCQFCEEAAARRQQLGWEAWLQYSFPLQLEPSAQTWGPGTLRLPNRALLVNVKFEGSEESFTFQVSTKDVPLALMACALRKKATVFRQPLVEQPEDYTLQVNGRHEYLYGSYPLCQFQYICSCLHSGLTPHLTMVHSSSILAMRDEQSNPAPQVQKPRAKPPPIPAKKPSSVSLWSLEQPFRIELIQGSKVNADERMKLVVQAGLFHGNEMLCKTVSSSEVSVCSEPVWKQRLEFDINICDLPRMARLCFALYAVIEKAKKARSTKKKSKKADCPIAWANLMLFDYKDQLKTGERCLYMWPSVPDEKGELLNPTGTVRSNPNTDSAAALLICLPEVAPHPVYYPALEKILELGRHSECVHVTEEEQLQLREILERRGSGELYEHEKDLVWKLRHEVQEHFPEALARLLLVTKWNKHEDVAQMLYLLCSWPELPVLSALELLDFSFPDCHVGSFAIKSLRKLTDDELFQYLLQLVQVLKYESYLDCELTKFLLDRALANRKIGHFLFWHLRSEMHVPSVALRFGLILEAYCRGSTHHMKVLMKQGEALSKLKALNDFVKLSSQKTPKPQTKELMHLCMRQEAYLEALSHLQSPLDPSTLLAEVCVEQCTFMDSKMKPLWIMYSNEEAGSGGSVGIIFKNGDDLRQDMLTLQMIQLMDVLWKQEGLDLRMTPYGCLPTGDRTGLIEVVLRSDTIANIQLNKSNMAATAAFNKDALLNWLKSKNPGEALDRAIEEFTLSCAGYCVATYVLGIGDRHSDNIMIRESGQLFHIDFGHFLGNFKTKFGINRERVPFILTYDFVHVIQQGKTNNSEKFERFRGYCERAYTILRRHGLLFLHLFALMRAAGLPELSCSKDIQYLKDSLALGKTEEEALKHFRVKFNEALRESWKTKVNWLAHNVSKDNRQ
Chain of PI3Kδ (p110δ/p85α) Recombinant Human Protein (P27986 whole entry partner): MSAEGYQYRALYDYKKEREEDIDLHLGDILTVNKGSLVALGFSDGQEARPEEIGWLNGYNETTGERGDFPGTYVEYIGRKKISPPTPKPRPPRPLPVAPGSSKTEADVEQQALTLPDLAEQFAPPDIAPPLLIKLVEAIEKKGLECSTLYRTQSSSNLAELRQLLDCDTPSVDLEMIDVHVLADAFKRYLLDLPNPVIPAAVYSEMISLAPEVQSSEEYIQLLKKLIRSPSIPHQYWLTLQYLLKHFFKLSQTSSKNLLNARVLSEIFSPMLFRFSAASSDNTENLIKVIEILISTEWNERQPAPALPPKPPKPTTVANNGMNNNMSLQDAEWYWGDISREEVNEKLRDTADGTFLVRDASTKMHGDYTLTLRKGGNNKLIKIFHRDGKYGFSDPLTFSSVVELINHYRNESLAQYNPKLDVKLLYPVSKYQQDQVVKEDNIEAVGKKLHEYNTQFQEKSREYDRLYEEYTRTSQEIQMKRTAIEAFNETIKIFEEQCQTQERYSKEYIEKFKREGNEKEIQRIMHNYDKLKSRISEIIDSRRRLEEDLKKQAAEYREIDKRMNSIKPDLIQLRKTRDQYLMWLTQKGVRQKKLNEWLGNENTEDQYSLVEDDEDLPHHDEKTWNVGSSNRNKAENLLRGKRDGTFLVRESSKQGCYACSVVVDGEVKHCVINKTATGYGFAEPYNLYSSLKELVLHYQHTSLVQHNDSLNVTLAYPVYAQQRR
Description: as §1, with “PI3Kδ (p110δ/p85α)” for “PI3Kγ (p110γ)”, “Eurofins (St Charles, Mo.).” for “Life technology (Grand Island, N.Y.).”
as §2, with “PI3Kδ” for “PI3Kγ”, “3.4” for “13”, “PI3Kδ.” for “PI3Kγ.”, “(PerkinElmer).” for “(Perkin-Elmer).”

| pIC50 ([1]; Homo sapiens, Table A4) | pIC50 ([2]; Table A4) | pIC50 ([3]; Table A4) | Compound | pIC50 ([1]; Table A3) | pIC50 ([2]; Table A3) | pIC50 ([3]; Table A3) |
| --- | --- | --- | --- | --- | --- | --- |
|  |  |  | 2-(3-(5-amino-6-(2-methylthiazol-5-yl)pyrazin-2-yl)-4-methylphenyl)-3,3,3-trifluoro-2-hydroxypropanamide trifluoroacetate [Example 72] | > 7.00 | > 7.00 | > 7.00 |
| > 6.00 | > 7.00 | > 5.70 | Cc1ccc(C(O)(C(N)=O)C(F)(F)F)cc1-c1cnc(N)c(C2CN(S(=O)(=O)c3cnn(C)c3)C2)n1 (single isomer, unassigned) [Example 107, 2-(3-(5-Amino-6-(1-((1-methyl-1H-pyrazol-4-yl)sulfonyl)azetidin-3-yl)pyrazin-2-yl)-4-methylphenyl)-3,3,3-trifluoro-2-hydroxypropanamide, trifluoroacetate salt] |  |  |  |
|  | > 6.30 | > 5.70 | CCOC(=O)C1CC(c2nc(-c3cc(C(O)(C(N)=O)C(F)(F)F)ccc3C)cnc2N)C1 (single isomer, unassigned) [Example 108, Ethyl 3-(3-amino-6-(5-(3-amino-1,1,1-trifluoro-2-hydroxy-3-oxopropan-2-yl)-2-methylphenyl)pyrazin-2-yl)cyclobutane-1-carboxylate] |  |  |  |
|  | > 7.00 | > 6.30 | CCOC(=O)C1CC(c2nc(-c3cc(C(O)(C(N)=O)C(F)(F)F)ccc3C)cnc2N)C1 (single isomer, unassigned) [Example 109, Ethyl 3-(3-amino-6-(5-(3-amino-1,1,1-trifluoro-2-hydroxy-3-oxopropan-2-yl)-2-methylphenyl)pyrazin-2-yl)cyclobutane-1-carboxylate] |  |  |  |
|  | > 6.30 | > 6.30 | Cc1ccc(C(O)(C(N)=O)C(F)(F)F)cc1-c1cnc(N)c(C2CC(C(=O)NC(C)C)C2)n1 (single isomer, unassigned) [Example 110, 3-(3-Amino-6-(5-(3-amino-1,1,1-trifluoro-2-hydroxy-3-oxopropan-2-yl)-2-methylphenyl)pyrazin-2-yl)-N-isopropylcyclobutane-1-carboxamide] |  |  |  |
|  | > 7.00 |  | Cc1ccc(C(O)(C(N)=O)C(F)(F)F)cc1-c1cnc(N)c(C2CC(C(=O)NC(C)C)C2)n1 (single isomer, unassigned) [Example 111, 3-(3-Amino-6-(5-(3-amino-1,1,1-trifluoro-2-hydroxy-3-oxopropan-2-yl)-2-methylphenyl)pyrazin-2-yl)-N-isopropylcyclobutane-1-carboxamide] |  |  |  |
|  |  |  | Cc1ccc(C(O)(C(=O)N(C)C)C(F)(F)F)cc1-c1cnc(N)c(-n2cncn2)n1 (centres unmarked) [Example 95, 2-(3-(5-Amino-6-(1H-1,2,4-triazol-1-yl)pyrazin-2-yl)-4-methylphenyl)-3,3,3-trifluoro-2-hydroxy-N,N-dimethylpropanamide trifluoroacetate] |  | > 6.30 | > 6.30 |
| > 6.00 |  | > 6.30 | CCOc1ccccc1N1CCN(c2nc(-c3cc(C(O)(C(N)=O)C(F)(F)F)ccc3C)cnc2N)CC1 (centres unmarked) [Example 129, 2-(3-(5-amino-6-(4-(2-ethoxyphenyl)piperazin-1-yl)pyrazin-2-yl)-4-methylphenyl)-3,3,3-trifluoro-2-hydroxypropanamide trifluoroacetate] |  |  |  |
